Laboratory results: patent US11407781B2, “Equatorially modified polymer linked multimers of guanosine-3′, 5′-cyclic monophosphates” (GRAYBUG VISION, INC., priority 2016, dated 2022)

Assay: Determination of lipophilicity by RP-18 HPLC retention (log k′g)
Assay type: physicochemical
Details: RP-18 reversed phase HPLC, gradient elution, ion pair chromatography with triethylammonium cation
Source text: Lipophilicity information is thus often only obtained by fragment analysis and corresponding calculations.
An established HPLC method, which is based on retention data on RP-18 reversed phase silica during gradient elution, was used for the determination of lipohilicity.
Instead of log P the method yields the descriptor log k′g, ranking analytes according to their lipophilicity on a logarithmic scale as well. Since charged molecules such as cyclic nucleotides have only hardly any retention on reversed phases, ion pair chromatography with the lipophilic triethylammonium cation is used.

## CC(C)c1ccc(Sc2nc3c(=O)n4cc(-c5ccccc5)[nH]c4nc3n2[C@@H]2O[C@@H]3CO[P@@](=O)(S)O[C@H]3[C@H]2O)cc1 (single isomer, unassigned) [Compound 35, 8-(4-Isopropylphenylthio)-β-phenyl-1,N^2-ethenoguanosine-3′,5′-cyclic monophosphorothioate, Rp-isomer]
  log k′g: 3.815
